Source: PubChem BioAssay (NCI)
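1) Cells in 96-well plates. 2) Compound, 48 h, 5 concentrations. 3) Linear interpolation between surrounding doses. 4) Unreached endpoint = highest concentration. At the GI50, growth is halved. The concentration for full growth arrest is given as TGI.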

How the values were obtained:
Test in all cases: growth of human tumour cells (NCI), 48 h
786-0 renal = system: 786-0 renal
A498 renal = system: A498 renal
A549 NSCLC = system: A549 NSCLC
ACHN renal = system: ACHN renal
BT-549 breast = system: BT-549 breast
CAKI-1 renal = system: CAKI-1 renal
CCRF-CEM leukemia = system: CCRF-CEM leukemia
COLO 205 colon = system: COLO 205 colon
DU-145 prostate = system: DU-145 prostate
EKVX NSCLC = system: EKVX NSCLC
HCC-2998 colon = system: HCC-2998 colon
HCT-116 colon = system: HCT-116 colon
HCT-15 colon = system: HCT-15 colon
HL-60(TB) leukemia = system: HL-60(TB) leukemia
HOP-62 NSCLC = system: HOP-62 NSCLC
HOP-92 NSCLC = system: HOP-92 NSCLC
HS 578T breast = system: HS 578T breast
HT29 colon = system: HT29 colon
IGROV1 ovarian = system: IGROV1 ovarian
K-562 leukemia = system: K-562 leukemia
KM12 colon = system: KM12 colon
LOX IMVI melanoma = system: LOX IMVI melanoma
M14 melanoma = system: M14 melanoma
MALME-3M melanoma = system: MALME-3M melanoma
MCF7 breast = system: MCF7 breast
MDA-MB-231 breast = system: MDA-MB-231 breast
MDA-MB-435 = system: MDA-MB-435
MDA-MB-468 breast = system: MDA-MB-468 breast
MOLT-4 leukemia = system: MOLT-4 leukemia
NCI-H226 lung = system: NCI-H226 lung
NCI-H23 lung = system: NCI-H23 lung
NCI-H460 lung = system: NCI-H460 lung
NCI-H522 lung = system: NCI-H522 lung
NCI/ADR-RES ovarian = system: NCI/ADR-RES ovarian
OVCAR-3 ovarian = system: OVCAR-3 ovarian
OVCAR-4 ovarian = system: OVCAR-4 ovarian
OVCAR-5 ovarian = system: OVCAR-5 ovarian
OVCAR-8 ovarian = system: OVCAR-8 ovarian
PC-3 prostate = system: PC-3 prostate
RPMI-8226 leukemia = system: RPMI-8226 leukemia
RXF 393 renal = system: RXF 393 renal
SF-268 CNS = system: SF-268 CNS
SF-295 CNS = system: SF-295 CNS
SF-539 CNS = system: SF-539 CNS
SK-MEL-2 melanoma = system: SK-MEL-2 melanoma
SK-MEL-28 melanoma = system: SK-MEL-28 melanoma
SK-MEL-5 melanoma = system: SK-MEL-5 melanoma
SK-OV-3 ovarian = system: SK-OV-3 ovarian
SN12C renal = system: SN12C renal
SNB-19 CNS = system: SNB-19 CNS
SNB-75 CNS = system: SNB-75 CNS
SR leukemia = system: SR leukemia
SW-620 colon = system: SW-620 colon
T-47D breast = system: T-47D breast
TK-10 renal = system: TK-10 renal
U251 CNS = system: U251 CNS
UACC-257 melanoma = system: UACC-257 melanoma
UACC-62 melanoma = system: UACC-62 melanoma
UO-31 renal = system: UO-31 renal

CS(=O)(=O)Nc1cncc(-c2ccc3ncnc(NCc4ccccc4)c3c2)c1
GI50 (786-0 renal): 15 µM | TGI (786-0 renal): 37.3 µM | GI50 (A498 renal): 13.1 µM | TGI (A498 renal): 36.1 µM | GI50 (A549 NSCLC): 15.5 µM | TGI (A549 NSCLC): 31.7 µM | GI50 (ACHN renal): 20.2 µM | TGI (ACHN renal): > 100 µM | GI50 (BT-549 breast): 3.63 µM | TGI (BT-549 breast): 21.5 µM | GI50 (CAKI-1 renal): 12.8 µM | TGI (CAKI-1 renal): 30.2 µM | GI50 (CCRF-CEM leukemia): 4.58 µM | TGI (CCRF-CEM leukemia): 33.3 µM | GI50 (COLO 205 colon): 13.2 µM | TGI (COLO 205 colon): 26.6 µM | GI50 (DU-145 prostate): 22.2 µM | TGI (DU-145 prostate): > 100 µM | GI50 (EKVX NSCLC): 12.9 µM | TGI (EKVX NSCLC): 31.4 µM | GI50 (HCC-2998 colon): 11.5 µM | TGI (HCC-2998 colon): 23.8 µM | GI50 (HCT-116 colon): 13.9 µM | TGI (HCT-116 colon): 29.1 µM | GI50 (HCT-15 colon): 23.3 µM | TGI (HCT-15 colon): 98.3 µM | GI50 (HL-60(TB) leukemia): 10.3 µM | TGI (HL-60(TB) leukemia): 40.9 µM | GI50 (HOP-62 NSCLC): 12.2 µM | TGI (HOP-62 NSCLC): 35 µM | GI50 (HOP-92 NSCLC): 3.92 µM | TGI (HOP-92 NSCLC): 20.1 µM | GI50 (HS 578T breast): 3.36 µM | TGI (HS 578T breast): 20.5 µM | GI50 (HT29 colon): 14.4 µM | TGI (HT29 colon): 30 µM | GI50 (IGROV1 ovarian): 7.73 µM | TGI (IGROV1 ovarian): 22.9 µM | GI50 (K-562 leukemia): 18.7 µM | TGI (K-562 leukemia): > 100 µM | GI50 (KM12 colon): 14.2 µM | TGI (KM12 colon): 30 µM | GI50 (LOX IMVI melanoma): 11.9 µM | TGI (LOX IMVI melanoma): 24.2 µM | GI50 (M14 melanoma): 14.6 µM | TGI (M14 melanoma): 45.7 µM | GI50 (MALME-3M melanoma): 4.17 µM | TGI (MALME-3M melanoma): 21.5 µM | GI50 (MCF7 breast): 4.56 µM | TGI (MCF7 breast): 24.6 µM | GI50 (MDA-MB-231 breast): 12.3 µM | TGI (MDA-MB-231 breast): 27 µM | GI50 (MDA-MB-435): 10.8 µM | TGI (MDA-MB-435): 27.4 µM | GI50 (MDA-MB-468 breast): 2.14 µM | TGI (MDA-MB-468 breast): 8.25 µM | GI50 (MOLT-4 leukemia): 5.53 µM | TGI (MOLT-4 leukemia): 74 µM | GI50 (NCI-H226 lung): 14 µM | TGI (NCI-H226 lung): 37.1 µM | GI50 (NCI-H23 lung): 12.7 µM | TGI (NCI-H23 lung): 28.1 µM | GI50 (NCI-H460 lung): 25.6 µM | TGI (NCI-H460 lung): 94.3 µM | GI50 (NCI-H522 lung): 4.21 µM | TGI (NCI-H522 lung): 18.9 µM | GI50 (NCI/ADR-RES ovarian): > 100 µM | TGI (NCI/ADR-RES ovarian): > 100 µM | GI50 (OVCAR-3 ovarian): 5.93 µM | TGI (OVCAR-3 ovarian): 21.6 µM | GI50 (OVCAR-4 ovarian): 12.2 µM | TGI (OVCAR-4 ovarian): 50.2 µM | GI50 (OVCAR-5 ovarian): 12.3 µM | TGI (OVCAR-5 ovarian): 32.9 µM | GI50 (OVCAR-8 ovarian): 19.1 µM | TGI (OVCAR-8 ovarian): 79 µM | GI50 (PC-3 prostate): 14.6 µM | TGI (PC-3 prostate): 38.3 µM | GI50 (RPMI-8226 leukemia): 15.1 µM | TGI (RPMI-8226 leukemia): 38 µM | GI50 (RXF 393 renal): 10.8 µM | TGI (RXF 393 renal): 26.6 µM | GI50 (SF-268 CNS): 10.5 µM | TGI (SF-268 CNS): 36.7 µM | GI50 (SF-295 CNS): 16.4 µM | TGI (SF-295 CNS): 39.4 µM | GI50 (SF-539 CNS): 11.9 µM | TGI (SF-539 CNS): 27.6 µM | GI50 (SK-MEL-2 melanoma): 5.75 µM | TGI (SK-MEL-2 melanoma): 19.3 µM | GI50 (SK-MEL-28 melanoma): 11 µM | TGI (SK-MEL-28 melanoma): 38.3 µM | GI50 (SK-MEL-5 melanoma): 12.9 µM | TGI (SK-MEL-5 melanoma): 25.6 µM | GI50 (SK-OV-3 ovarian): 15.5 µM | TGI (SK-OV-3 ovarian): 34.9 µM | GI50 (SN12C renal): 12.4 µM | TGI (SN12C renal): 39.1 µM | GI50 (SNB-19 CNS): 9.74 µM | TGI (SNB-19 CNS): 26.2 µM | GI50 (SNB-75 CNS): 6.7 µM | TGI (SNB-75 CNS): 32.8 µM | GI50 (SR leukemia): 8.84 µM | TGI (SR leukemia): 40.3 µM | GI50 (SW-620 colon): 17.1 µM | TGI (SW-620 colon): 41.6 µM | GI50 (T-47D breast): 2.85 µM | TGI (T-47D breast): 12.7 µM | GI50 (TK-10 renal): 10.7 µM | TGI (TK-10 renal): 29.9 µM | GI50 (U251 CNS): 7.54 µM | TGI (U251 CNS): 41 µM | GI50 (UACC-257 melanoma): 13.8 µM | TGI (UACC-257 melanoma): 51.6 µM | GI50 (UACC-62 melanoma): 7.19 µM | TGI (UACC-62 melanoma): 20.4 µM | GI50 (UO-31 renal): 12.1 µM | TGI (UO-31 renal): 36.5 µM
